Measured values: US20020137929A1, “1 - (3-heterocyclylphenyl) isothiourea, -isourea, -guanidine and -amidine herbicidal agents” (Intellectual Property Department, BASF Aktiengesellschaft, priority 1998, published 2002)

What was measured:
ABUTH (Velvetleaf) = experiment: Postemergence herbicidal evaluation; type: in vivo, Abutilon theophrasti; conditions: postemergence
Procedure, shortened: (§1)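 Scores (0–9) reflect plant stand, vigor, malformation, size, chlorosis and general appearance relative to control, read 4 to 5 weeks after treatment and averaged where tests were repeated. Application: about 0.0156–0.500 kg/ha sprayed at 40 psi onto two-week seedlings.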

AMBEL (Ragweed, Common) = experiment: Postemergence herbicidal evaluation; type: in vivo, Ambrosia artemisifolia; conditions: postemergence
Procedure, shortened: as §1

[1] = system: IPOHE (Morningglory, Ivyleaf); experiment: Postemergence herbicidal evaluation; type: in vivo, Ipomoea hederacea; conditions: postemergence
Procedure, shortened: as §1

ECHCG (Barnyardgrass) [2] = experiment: Postemergence herbicidal evaluation; type: in vivo, Echinochloa crus-galli; conditions: postemergence
Procedure, shortened: as §1

SETVI (Foxtail, Green) = experiment: Postemergence herbicidal evaluation; type: in vivo, Setaria viridis; conditions: postemergence
Procedure, shortened: as §1

[3] = system: GLXMAW (Soybean, Williams); experiment: Postemergence herbicidal evaluation; type: in vivo, Glycine max, (L.) Merr. cv Williams; conditions: postemergence
Procedure, shortened: as §1

[4] = system: TRZAWR (Wheat, Winter, cv Riband); experiment: Postemergence herbicidal evaluation; type: in vivo, Triticum aestivum; conditions: postemergence
Procedure, shortened: as §1

CASOB (Sicklepod) = experiment: Preemergence herbicidal evaluation; type: in vivo, Cassia obtusifolia; conditions: rated 4-5 weeks after treatment, rating scale 0-9
Procedure, shortened: (§2)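 Preemergence soil application of compound, sprayed in aqueous acetone at rates equivalent to about 0.0156 to 0.500 kg per hectare onto freshly sown cups. Plant response was judged by eye on a 0-9 scale four to five weeks later.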

[5] = system: CHEAL (Lambsquarters, Common); experiment: Preemergence herbicidal evaluation; type: in vivo, Chenopodium album; conditions: rated 4-5 weeks after treatment, rating scale 0-9
Procedure, shortened: as §2

GALAP (Galium) = experiment: Preemergence herbicidal evaluation; type: in vivo, Galium aparine; conditions: rated 4-5 weeks after treatment, rating scale 0-9
Procedure, shortened: as §2

[6] = system: IPOHE (Morningglory, Ivyleaf); experiment: Preemergence herbicidal evaluation; type: in vivo, Ipomoea hederacea; conditions: rated 4-5 weeks after treatment, rating scale 0-9
Procedure, shortened: as §2

ECHCG (Barnyardgrass) [7] = experiment: Preemergence herbicidal evaluation; type: in vivo, Echinochloa crus-galli; conditions: rated 4-5 weeks after treatment, rating scale 0-9
Procedure, shortened: as §2

ZEAMX (Corn, Field) = experiment: Preemergence herbicidal evaluation; type: in vivo, Zea mays; conditions: rated 4-5 weeks after treatment, rating scale 0-9
Procedure, shortened: as §2

Compound: Cn1c(C(F)(F)F)cc(=O)n(-c2cc(N=C3SCC(=O)N3Cc3ccc(C(F)(F)F)cc3)c(Cl)cc2F)c1=O [Compound 141, 3-{4-Chloro-2-fluoro-5-{{3-[p-(trifluoromethyl)benzyl]-4-oxo-2-thiazolidinylidene}-amino}phenyl}-1-methyl-6-(trifluoromethyl)-2,4 (1H, 3H)-pyrimidinedione]
- Herbicidal rating ABUTH (ABUTH (Velvetleaf); rate 0.0156 kg/ha): 7.0
- Herbicidal rating ABUTH (ABUTH (Velvetleaf); rate 0.0313 kg/ha): 7.0
- Herbicidal rating ABUTH (ABUTH (Velvetleaf); rate 0.0625 kg/ha): 8.0
- Herbicidal rating AMBEL (AMBEL (Ragweed, Common); rate 0.0156 kg/ha): 7.0
- Herbicidal rating AMBEL (AMBEL (Ragweed, Common); rate 0.0313 kg/ha): 7.0
- Herbicidal rating AMBEL (AMBEL (Ragweed, Common); rate 0.0625 kg/ha): 9.0
- Herbicidal rating IPOHE ([1]; rate 0.0156 kg/ha): 9.0
- Herbicidal rating IPOHE ([1]; rate 0.0313 kg/ha): 9.0
- Herbicidal rating IPOHE ([1]; rate 0.0625 kg/ha): 9.0
- Herbicidal rating ECHCG (ECHCG (Barnyardgrass) [2]; rate 0.0156 kg/ha): 0.0
- Herbicidal rating ECHCG (ECHCG (Barnyardgrass) [2]; rate 0.0313 kg/ha): 0.0
- Herbicidal rating ECHCG (ECHCG (Barnyardgrass) [2]; rate 0.0625 kg/ha): 0.0
- Herbicidal rating SETVI (SETVI (Foxtail, Green); rate 0.0156 kg/ha): 0.0
- Herbicidal rating SETVI (SETVI (Foxtail, Green); rate 0.0313 kg/ha): 0.0
- Herbicidal rating SETVI (SETVI (Foxtail, Green); rate 0.0625 kg/ha): 0.0
- Herbicidal rating GLXMAW ([3]; rate 0.0156 kg/ha): 4.0
- Herbicidal rating GLXMAW ([3]; rate 0.0313 kg/ha): 4.0
- Herbicidal rating GLXMAW ([3]; rate 0.0625 kg/ha): 4.5
- Herbicidal rating TRZAWR ([4]; rate 0.0156 kg/ha): 3.0
- Herbicidal rating TRZAWR ([4]; rate 0.0313 kg/ha): 3.5
- Herbicidal rating TRZAWR ([4]; rate 0.0625 kg/ha): 4.5
- Preemergence herbicidal rating CASOB (CASOB (Sicklepod); rate 0.0156 kg/ha): 0.0
- Preemergence herbicidal rating CASOB (CASOB (Sicklepod); rate 0.0313 kg/ha): 0.0
- Preemergence herbicidal rating CASOB (CASOB (Sicklepod); rate 0.0625 kg/ha): 0.0
- Preemergence herbicidal rating CASOB (CASOB (Sicklepod); rate 0.1250 kg/ha): 0.0
- Preemergence herbicidal rating CASOB (CASOB (Sicklepod); rate 0.2500 kg/ha): 3.0
- Preemergence herbicidal rating CHEAL ([5]; rate 0.0156 kg/ha): 3.0
- Preemergence herbicidal rating CHEAL ([5]; rate 0.0313 kg/ha): 9.0
- Preemergence herbicidal rating CHEAL ([5]; rate 0.0625 kg/ha): 9.0
- Preemergence herbicidal rating CHEAL ([5]; rate 0.1250 kg/ha): 9.0
- Preemergence herbicidal rating CHEAL ([5]; rate 0.2500 kg/ha): 9.0
- Preemergence herbicidal rating GALAP (GALAP (Galium); rate 0.0156 kg/ha): 0.0
- Preemergence herbicidal rating GALAP (GALAP (Galium); rate 0.0313 kg/ha): 0.0
- Preemergence herbicidal rating GALAP (GALAP (Galium); rate 0.0625 kg/ha): 0.0
- Preemergence herbicidal rating GALAP (GALAP (Galium); rate 0.1250 kg/ha): 0.0
- Preemergence herbicidal rating GALAP (GALAP (Galium); rate 0.2500 kg/ha): 0.0
- Preemergence herbicidal rating IPOHE ([6]; rate 0.0156 kg/ha): 0.0
- Preemergence herbicidal rating IPOHE ([6]; rate 0.0313 kg/ha): 0.0
- Preemergence herbicidal rating IPOHE ([6]; rate 0.0625 kg/ha): 0.0
- Preemergence herbicidal rating IPOHE ([6]; rate 0.1250 kg/ha): 0.0
- Preemergence herbicidal rating IPOHE ([6]; rate 0.2500 kg/ha): 3.0
- Preemergence herbicidal rating ECHCG (ECHCG (Barnyardgrass) [7]; rate 0.0156 kg/ha): 0.0
- Preemergence herbicidal rating ECHCG (ECHCG (Barnyardgrass) [7]; rate 0.0313 kg/ha): 0.0
- Preemergence herbicidal rating ECHCG (ECHCG (Barnyardgrass) [7]; rate 0.0625 kg/ha): 0.0
- Preemergence herbicidal rating ECHCG (ECHCG (Barnyardgrass) [7]; rate 0.1250 kg/ha): 0.0
- Preemergence herbicidal rating ECHCG (ECHCG (Barnyardgrass) [7]; rate 0.2500 kg/ha): 2.0
- Preemergence herbicidal rating ZEAMX (ZEAMX (Corn, Field); rate 0.0156 kg/ha): 0.0
- Preemergence herbicidal rating ZEAMX (ZEAMX (Corn, Field); rate 0.0313 kg/ha): 0.0
- Preemergence herbicidal rating ZEAMX (ZEAMX (Corn, Field); rate 0.0625 kg/ha): 0.0
- Preemergence herbicidal rating ZEAMX (ZEAMX (Corn, Field); rate 0.1250 kg/ha): 0.0
- Preemergence herbicidal rating ZEAMX (ZEAMX (Corn, Field); rate 0.2500 kg/ha): 2.0

Compound: Cn1c(C(F)(F)F)cc(=O)n(-c2cc(N=C3SCC(=O)N3Cc3ccc(Cl)c(Cl)c3)c(Cl)cc2F)c1=O [Compound 144, 3-{4-Chloro-5-{[3-(3,4-dichlorobenzyl)-4-oxo-2-thiazolidinylidene]amino}-2-fluorophenyl}-1-methyl-6-(trifluoromethyl)-2,4(1H,3H)-pyrimidinedione]
- Herbicidal rating ABUTH (ABUTH (Velvetleaf); rate 0.0156 kg/ha): 9.0
- Herbicidal rating ABUTH (ABUTH (Velvetleaf); rate 0.0313 kg/ha): 9.0
- Herbicidal rating ABUTH (ABUTH (Velvetleaf); rate 0.0625 kg/ha): 9.0
- Herbicidal rating AMBEL (AMBEL (Ragweed, Common); rate 0.0156 kg/ha): 7.0
- Herbicidal rating AMBEL (AMBEL (Ragweed, Common); rate 0.0313 kg/ha): 9.0
- Herbicidal rating AMBEL (AMBEL (Ragweed, Common); rate 0.0625 kg/ha): 9.0
- Herbicidal rating IPOHE ([1]; rate 0.0156 kg/ha): 9.0
- Herbicidal rating IPOHE ([1]; rate 0.0313 kg/ha): 9.0
- Herbicidal rating IPOHE ([1]; rate 0.0625 kg/ha): 9.0
- Herbicidal rating ECHCG (ECHCG (Barnyardgrass) [2]; rate 0.0156 kg/ha): 2.0
- Herbicidal rating ECHCG (ECHCG (Barnyardgrass) [2]; rate 0.0313 kg/ha): 3.0
- Herbicidal rating ECHCG (ECHCG (Barnyardgrass) [2]; rate 0.0625 kg/ha): 4.0
- Herbicidal rating SETVI (SETVI (Foxtail, Green); rate 0.0156 kg/ha): 3.0
- Herbicidal rating SETVI (SETVI (Foxtail, Green); rate 0.0313 kg/ha): 3.0
- Herbicidal rating SETVI (SETVI (Foxtail, Green); rate 0.0625 kg/ha): 6.0
- Herbicidal rating GLXMAW ([3]; rate 0.0156 kg/ha): 5.0
- Herbicidal rating GLXMAW ([3]; rate 0.0313 kg/ha): 5.5
- Herbicidal rating GLXMAW ([3]; rate 0.0625 kg/ha): 6.5
- Herbicidal rating TRZAWR ([4]; rate 0.0156 kg/ha): 3.5
- Herbicidal rating TRZAWR ([4]; rate 0.0313 kg/ha): 3.5
- Herbicidal rating TRZAWR ([4]; rate 0.0625 kg/ha): 4.0
- Preemergence herbicidal rating CASOB (CASOB (Sicklepod); rate 0.0156 kg/ha): 0.0
- Preemergence herbicidal rating CASOB (CASOB (Sicklepod); rate 0.0313 kg/ha): 0.0
- Preemergence herbicidal rating CASOB (CASOB (Sicklepod); rate 0.0625 kg/ha): 0.0
- Preemergence herbicidal rating CASOB (CASOB (Sicklepod); rate 0.1250 kg/ha): 1.0
- Preemergence herbicidal rating CASOB (CASOB (Sicklepod); rate 0.2500 kg/ha): 2.0
- Preemergence herbicidal rating CHEAL ([5]; rate 0.0156 kg/ha): 6.0
- Preemergence herbicidal rating CHEAL ([5]; rate 0.0313 kg/ha): 7.0
- Preemergence herbicidal rating CHEAL ([5]; rate 0.0625 kg/ha): 9.0
- Preemergence herbicidal rating CHEAL ([5]; rate 0.1250 kg/ha): 9.0
- Preemergence herbicidal rating CHEAL ([5]; rate 0.2500 kg/ha): 9.0
- Preemergence herbicidal rating GALAP (GALAP (Galium); rate 0.0156 kg/ha): 1.0
- Preemergence herbicidal rating GALAP (GALAP (Galium); rate 0.0313 kg/ha): 1.0
- Preemergence herbicidal rating GALAP (GALAP (Galium); rate 0.0625 kg/ha): 1.0
- Preemergence herbicidal rating GALAP (GALAP (Galium); rate 0.1250 kg/ha): 2.0
- Preemergence herbicidal rating GALAP (GALAP (Galium); rate 0.2500 kg/ha): 2.0
- Preemergence herbicidal rating IPOHE ([6]; rate 0.0156 kg/ha): 0.0
- Preemergence herbicidal rating IPOHE ([6]; rate 0.0313 kg/ha): 0.0
- Preemergence herbicidal rating IPOHE ([6]; rate 0.0625 kg/ha): 0.0
- Preemergence herbicidal rating IPOHE ([6]; rate 0.1250 kg/ha): 0.0
- Preemergence herbicidal rating IPOHE ([6]; rate 0.2500 kg/ha): 1.0
- Preemergence herbicidal rating ECHCG (ECHCG (Barnyardgrass) [7]; rate 0.0156 kg/ha): 0.0
- Preemergence herbicidal rating ECHCG (ECHCG (Barnyardgrass) [7]; rate 0.0313 kg/ha): 0.0
- Preemergence herbicidal rating ECHCG (ECHCG (Barnyardgrass) [7]; rate 0.0625 kg/ha): 0.0
- Preemergence herbicidal rating ECHCG (ECHCG (Barnyardgrass) [7]; rate 0.1250 kg/ha): 0.0
- Preemergence herbicidal rating ECHCG (ECHCG (Barnyardgrass) [7]; rate 0.2500 kg/ha): 1.0
- Preemergence herbicidal rating ZEAMX (ZEAMX (Corn, Field); rate 0.0156 kg/ha): 0.0
- Preemergence herbicidal rating ZEAMX (ZEAMX (Corn, Field); rate 0.0313 kg/ha): 0.0
- Preemergence herbicidal rating ZEAMX (ZEAMX (Corn, Field); rate 0.0625 kg/ha): 0.0
- Preemergence herbicidal rating ZEAMX (ZEAMX (Corn, Field); rate 0.1250 kg/ha): 0.0
- Preemergence herbicidal rating ZEAMX (ZEAMX (Corn, Field); rate 0.2500 kg/ha): 0.0
